# Source: patent US11712466B2, “Vaccine composition” (TOHOKU UNIVERSITY, priority 2017, dated 2023)
# “Also recorded” adds a separate entry of the source. Ends that are not written are not given here.
# Legend:
# mTwist1 = assay: Gene expression in excised tumor tissue by real-time PCR, mTwist1; type: in vivo, mouse; conditions: tumor excised two weeks after implantation
# Method: The mouse implanted with the tumor cells in Example 2 was sacrificed two weeks after implantation of the tumor cells, and a tumor was excised from the right axillary subcutaneous region. By using RNeasy Plus Kit (Qiagen, Inc.), extraction of the total RNA from the excised tumor and purification thereof were carried out. By using the obtained total RNA as a template, cDNA was synthesized by reverse transcription reaction. The cDNA was analyzed by performing real-time PCR using a mixed solution of the obtained cDNA and SYBR green (TAKARA BIO, Inc.).
# K5 cells = assay: Tumor growth inhibitory effect, subcutaneous implant model of K5 cells; type: in vivo, mouse
# Method: 100 μg of KLH (control) or 100 μg of the MTG peptide vaccine was prepared with physiological saline so that the total amount was 100 &L, respectively, whereby KLH-mixed solutions were obtained. To each of the KLH-mixed solutions (100 μL), an equal amount of Alhydrogel (registered trademark) was added. The obtained mixture (200 μL) was intradermally (ID) administered to C57BL/6Jx129SVJ mice aged 8 weeks, whereby initial immunization was carried out (0 day). After 2 weeks from the administration (14 days), booster immunization was carried out. Further, after 2 weeks from the booster immunization (28 days), K5 cells were implanted in each of the mice, whereby a subcutaneous implant model was prepared. In order to confirm that an anti-VASH2 antibody was induced in the mice, the blood was collected at 0 day, 14 day, and 28 day, and the antibody titer was confirmed by ELISA (FIG. 15).
# [1] = tested on: RH30 rhabdomyosarcoma cells; assay: In vitro wound migration method with serum of immunized mouse (RH30); type: cell-based, human; conditions: 1% serum of mouse with increased anti-VASH2 titer after vaccine; 24 and 48 hours
# Method: By using the serum derived from a mouse in which an increase in the antibody titer against the recombinant human VASH2 protein by administration of the MTG peptide vaccine was confirmed, the effect on the migration ability of various types of cancer cells was examined by an in vitro wound migration method. Mouse-derived Lewis lung cancer cells and human-derived RH30 rhabdomyosarcoma cells were added to a 6-well plate at 1.0×10^6 cells each. After 24 hours, a formed cell monolayer was wounded and linearly exfoliated. After the exfoliation, the medium was replaced with fresh 0.5% FBS+RPMI medium supplemented with 1% mouse serum. At 24 hours and 48 hours after the medium replacement, the image of the cell monolayer was captured using an IX71 inverted microscope (manufactured by Olympus Corporation), and a cell migration distance of each time zone was analyzed using ImageJ software. The analysis was carried out according to the following formula. Cell migration distance (%)={(A−B)/A}×100
# A: Width of initial wound, B: Width of wound after 24 hours or 48 hours
# [2] = tested on: mouse lung cancer cells (LLC); assay: Metastasis inhibitory effect in vivo, LLC injected through tail vein, lung metastatic lesion; conditions: 20 or 100 μg, day 21 after LLC injection
# Method: 20 μg or 100 μg of KLH (control) and 20 μg or 100 μg of the peptide represented by SEQ ID NO: 4 conjugated with KLH (MTG peptide vaccine) were prepared with physiological saline so that the total amount was 100 μL, respectively, whereby KLH-mixed solutions were obtained. To each of the KLH-mixed solutions (100 μL), an equal amount of complete Freund's adjuvant or Alhydrogel (registered trademark) (Invitrogen) was added. The obtained mixture (200 μL) was intradermally (ID) administered to C57BL/6J male mice (n=5) aged 8 weeks, whereby initial immunization was carried out (0 day). Incidentally, in the intradermal administration, 200 μL was administered at a dose of 100 μL each to two sites. After 2 weeks from the administration (14 days), booster immunization was carried out by subcutaneously administering a mixture of each of the KLH-mixed solutions (100 μL) and an equal amount of incomplete Freund's adjuvant or Alhydrogel (registered trademark) to the mice. […] Further, at that time point, the blood was collected from each mouse, and the antibody titer of an antibody specific to the VASH2 protein was measured by ELISA. The mice were sacrificed on day 21 after the injection of LLC (49 days), and the lung metastatic lesion was analyzed (FIG. 7). […]
substance,measurement,setting,value
MTG peptide vaccine: MTG peptide MTGSAADTHR (SEQ ID NO: 4) conjugated with KLH as carrier by a glutaraldehyde method (also: conjugated with KLH by glutaraldehyde),expression of mTwist1 (epithelial-mesenchymal transition marker) in tumor tissue,mTwist1,dose-dependent expression inhibitory effect; also recorded: significantly inhibited depending on the dose
same,"tumor size (tumorigenesis), K5 cells, Experiment 1","K5 cells; C57BL/6Jx129SVJ mice n=2, 100 μg, 14 to 40 days after implantation",significant inhibition of tumorigenesis
same,"tumor size (tumorigenesis), K5 cells, Experiment 2","K5 cells; C57BL/6Jx129SVJ mice n=11, 100 μg, day 15 after implantation, vs KLH p=0.0002",tumorigenesis was significantly inhibited
same,"cell migration, human-derived RH30 rhabdomyosarcoma cells",[1],migration inhibitory effect
same,"metastasis of cancer cells (lung metastatic lesion), LLC",[2]; Alhydrogel adjuvant,inhibited metastasis of cancer cells
same,"metastasis of cancer cells (lung metastatic lesion), LLC",[2]; Freund's adjuvant,inhibited metastasis of cancer cells
